Data as given in patent publication US20240308995A1, “O-GLYCOPROTEIN-2-ACETAMIDO-2-DEOXY-3-D-GLUCOPYRANOSIDASE INHIBITORS” (BIOGEN MA INC., priority 2018, published 2024).
Like-named read-outs stand apart in the source and are kept apart here.

Key:
[1] = molecular target: Recombinant full length human OGA enzyme (Homo sapiens (Human), UniProt O60502); test: OGA Enzyme Inhibition Biochemical Assay; details: 1 nM OGA, 100 μM 4-MUGlcNAc, pH 6.4
Procedure: Recombinant full length human OGA enzyme was purchased from Origene. 4-MUGlcNAc substrate was purchased from Sigma. All other reagents were purchased from Sigma or Fisher. Assay buffer consists of the McIlvaine buffer system, pH 6.4 (0.2M Na2HPO4 mixed with 0.1M citric acid) and 0.01% BSA. […] Reactions were incubated for 90 minutes at room temperature and quenched with 40 μl of 3M glycine, pH 10 and read on a Perkin Elmer Envision plate reader (Ex: 355 nm/Em: 460 nm). Compounds were tested with a 10-point dose-response starting from 20 μM with a 4-fold dilution. Data was fit using GraphPad Prism using a 4-parameter fit with variable slope.

[2] = Rat Liver Microsome Stability Assay; type: in vitro ADME; details: rat liver microsomes, 1 uM compound
[3] = molecular target: OGA (S400 O-GLCNAC), HEK-293T cells transfected with Tau-V5 (Homo sapiens (Human), UniProt O60502); test: Cellular OGA-Tau MSD Assay; type: cell-based; details: HEK-293T cells, Tau-S400-GlcNAc MSD readout
Chain of OGA (S400 O-GLCNAC), HEK-293T cells transfected with Tau-V5 (O60502 whole entry): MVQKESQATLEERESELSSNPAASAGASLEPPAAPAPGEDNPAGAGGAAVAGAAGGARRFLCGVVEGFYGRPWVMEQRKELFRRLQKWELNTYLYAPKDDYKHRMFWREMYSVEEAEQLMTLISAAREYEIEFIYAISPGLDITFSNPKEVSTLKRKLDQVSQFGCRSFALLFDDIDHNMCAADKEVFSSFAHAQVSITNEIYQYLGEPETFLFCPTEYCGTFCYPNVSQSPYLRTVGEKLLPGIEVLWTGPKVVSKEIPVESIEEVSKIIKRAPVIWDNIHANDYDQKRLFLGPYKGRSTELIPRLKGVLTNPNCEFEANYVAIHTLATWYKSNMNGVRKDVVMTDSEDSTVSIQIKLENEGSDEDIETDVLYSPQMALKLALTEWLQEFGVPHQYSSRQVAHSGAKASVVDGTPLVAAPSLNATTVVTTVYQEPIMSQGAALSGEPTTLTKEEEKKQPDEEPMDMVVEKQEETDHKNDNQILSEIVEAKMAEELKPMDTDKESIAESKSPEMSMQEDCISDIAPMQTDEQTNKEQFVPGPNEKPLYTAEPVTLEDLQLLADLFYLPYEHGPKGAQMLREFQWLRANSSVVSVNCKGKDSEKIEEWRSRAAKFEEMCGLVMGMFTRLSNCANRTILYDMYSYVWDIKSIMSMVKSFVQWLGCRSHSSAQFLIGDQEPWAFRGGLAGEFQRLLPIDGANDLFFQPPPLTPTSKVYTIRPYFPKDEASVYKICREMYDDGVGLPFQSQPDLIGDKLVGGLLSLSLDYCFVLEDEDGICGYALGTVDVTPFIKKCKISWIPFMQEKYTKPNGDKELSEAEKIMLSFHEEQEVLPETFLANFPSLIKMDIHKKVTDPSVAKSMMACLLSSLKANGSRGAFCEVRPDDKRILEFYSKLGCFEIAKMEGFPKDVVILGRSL
Procedure: HEK-293T cells were transfected with […] and Tau-V5 plasmids using Lipofectamine and grown overnight. Next day, the cells were collected and re-plated at 1×10^5 cells per well in 96 well plates. Cells were incubated for 4 hr at 37° C., before compounds were added at 1 uM, with 3-fold dilutions in a 10-point titration. Cell plates were incubated with compounds overnight at 37° C. The next day media was removed from wells by gentle aspiration and 120 ul of 1× Cell Lysis buffer mixed with protease and phosphatase cocktail added to each well. A freeze thaw was performed at -80° C., then mixed before transferring 50 ul to MSD plates coated with V5-tag antibody to capture Tau. MSD Plates were incubated overnight at 4° C., on a plate shaker. The following day, plates were washed and incubated with Tau-[…]-GlcNAc antibody for 2 hr and then developed with rabbit Sulfo-tag antibody. Final read out was carried out on an MSD 600 reader. The data was analyzed using Graph Pad or Genedata, the data was normalized and % activity versus log of compound concentration was plotted. The IC50 values were obtained from a 4 parameter fit.

P-gp (MDR1) = test: MDR1-MDCK Efflux Ratio Assay; type: in vitro ADME; details: dog, read-out: MDR1-MDCK Efflux Ratio (B-A/A-B)
Procedure: MDR1-MDCK cell monolayers were grown to confluence on microporous polyester membranes in 96-well Corning insert plates. The permeability assay buffer was Hanks' Balanced Salt Solution containing 10 mM HEPES at pH of 7.4. Loperamide (1 μM) was used as a positive control P-gp substrate. Propranolol and Bestatin (1 μM) were used as high and low permeability comparators, respectively. Test compounds or positive control P-gp substrate/permeability comprators were added to respective apical and basolateral chambers for bidirectional assessment of permeability. Receiver buffer (transport buffer supplemented with 1% bovine serum albumin) was added to respective receiver chambers. MDR1-MDCK cells were incubated with test compounds at 37° C. with 5% CO2 for 2 hr. Samples were collected from the donor chamber at both 0 and 120 minutes, and from the receiver chamber at 120 minutes. Test and control compound concentrations were determined using LC-MS/MS analysis. Each determination was performed in triplicate. The apparent permeability (Papp), efflux ratio and mass balance (percent recovery) were calculated as follows: [formula] where: dCr/dt is the cumulative concentration in the receiver compartment versus time in μM s^−1 Vr is the volume of the receiver compartment in cm^3 Vd is the volume of the donor compartment in cm^3 A is the area of the insert (0.143 cm^2 for 96-well insert) CE is the estimated experimental concentration (Time=0) of the dosing solution Cr^final is the concentration of the receiver at the end of the incubation period Cd^final is the concentration of the donor at the end of the incubation period.

[4] = MDCK-MDR1, pH 7.4, MDR1-MDCK cells, 2 hr, pH 7.4

Chain of Recombinant full length human OGA enzyme (O60502 whole entry): as above

SMILES | IC50 [1] [nM] | RLM % Qh (%) [2] [%] | IC50 [3] [nM] | efflux ratio at 2 h (P-gp (MDR1); [4]) | efflux ratio at 2 h (P-gp (MDR1); MDCK-MDR1, pH 7.4, repeated assay, value marked with asterisk (*))
COc1cc(O[C@@H]2CC[C@H](C)N(Cc3cnc(NC(C)=O)s3)C2)ncn1 [Example 1-44, N-(5-(((2S,5R)-5-((6-methoxypyrimidin-4-yl)oxy)-2-methylpiperidin-1-yl)methyl)thiazol-2-yl)acetamide] | < 1 | 88 | 2 | 9.3 | 
CC(=O)Nc1nc(F)c(CN2C[C@@H](Oc3cc(C)nc(C)c3)C[C@@H]2C)s1 [Example 1-52, N-(5-(((2S,4S)-4-((2,6-dimethylpyridin-4-yl)oxy)-2-methylpyrrolidin-1-yl)methyl)-4-fluorothiazol-2-yl)acetamide] | 33 | 76 | 55 | 12.9 | 
CC(=O)Nc1ncc(CN2CCC[C@@H](Oc3cc(C)nc(C)c3)C2)s1 [Example 1-65, (R)—N-(5-((3-((2,6-dimethylpyridin-4-yl)oxy)piperidin-1-yl)methyl)thiazol-2-yl)acetamide] | 2.1 | 85 | 18 | 17 | 
CC(=O)Nc1ncc(CN2CCC[C@H](Oc3ccc(F)cn3)C2)s1 [Example 1-2, (S)—N-(5-((3-((5-fluoropyridin-2-yl)oxy)piperidin-1-yl)methyl)thiazol-2-yl)acetamide] | 210 | 86 | 35 | 2.3 | 2.1
CC(=O)Nc1nc(F)c(CN2CC[C@H](Oc3cc(C)nc(C)c3)C2)s1 [Example 1-48, (S)—N-(5-((3-((2,6-dimethylpyridin-4-yl)oxy)pyrrolidin-1-yl)methyl)-4-fluorothiazol-2-yl)acetamide] | 150 | 57 | 821 | 24.1 | 
COc1nc(C)cc(O[C@@H]2C[C@H](C)N(Cc3cnc(NC(C)=O)s3)C2)n1 [Example 1-75, N-(5-(((2S,4R)-4-((2-methoxy-6-methylpyrimidin-4-yl)oxy)-2-methylpyrrolidin-1-yl)methyl)thiazol-2-yl)acetamide] | < 1 | 58 | 2 | 6.7 | 
CC(=O)Nc1nc(F)c(CN2C[C@H](Oc3cc(N4CCOCC4)ncn3)C[C@@H]2C)s1 [Example 1-103, N-(4-fluoro-5-(((2S,4R)-2-methyl-4-((6-morpholinopyrimidin-4-yl)oxy)pyrrolidin-1-yl)methyl)thiazol-2-yl)acetamide] | < 1 | 45 | 3 | 15.9 | 
CC(=O)Nc1ncc(CN2CCC[C@H](Oc3cc(C)nc(C)c3)C2)s1 [Example 1-64, (S)—N-(5-((3-((2,6-dimethylpyridin-4-yl)oxy)piperidin-1-yl)methyl)thiazol-2-yl)acetamide] | 23 | 67 | 31 | 35.3 | 

More lines, now with the values ahead:

IC50 [1] [nM] | RLM % Qh (%) [2] [%] | IC50 [3] [nM] | efflux ratio at 2 h (P-gp (MDR1); [4]) | efflux ratio at 2 h (P-gp (MDR1); MDCK-MDR1, pH 7.4, repeated assay, value marked with asterisk (*)) | SMILES
2.4 | 47 | 6 | 4.1 |  | CC(=O)Nc1ncc(CN2C[C@H](Oc3cc(F)ncn3)C[C@@H]2C)s1 [Example 1-78, N-(5-(((2S,4R)-4-((6-fluoropyrimidin-4-yl)oxy)-2-methylpyrrolidin-1-yl)methyl)thiazol-2-yl)acetamide]
1.1 | 90 | 2 | 2.4 |  | CC(=O)Nc1ncc(CN2C[C@H](Oc3ccc(C(F)F)cn3)C[C@@H]2C)s1 [Example 1-13, N-(5-(((2S,4R)-4-((5-(difluoromethyl)pyridin-2-yl)oxy)-2-methylpyrrolidin-1-yl)methyl)thiazol-2-yl)acetamide]
< 1 | 16 | 1 | 38.6 |  | CC(=O)Nc1ncc(CN2C[C@H](Oc3ccc(F)nn3)C[C@@H]2C)s1 [Example 1-83, N-(5-(((2S,4R)-4-((6-fluoropyridazin-3-yl)oxy)-2-methylpyrrolidin-1-yl)methyl)thiazol-2-yl)acetamide]
